Measured values taken from EP3284739A1, “SUBSTITUTED (HET) ARYL COMPOUNDS AS PESTICIDES” (Bayer CropScience Aktiengesellschaft, priority 2017, dated 2018).
Read-outs that look alike come from different tables or passages of the source.

What was measured:
Ctenocephalides felis [1] = assay: Ctenocephalides felis oral test (feeding on treated citrated cattle blood); assay type: in vivo; settings: 48 h, Aufwandmenge 100ppm, after 2 days, read-out: Wirkung (Abtötung)
Description: Zwecks Herstellung einer zweckmäßigen Wirkstoffzubereitung vermischt man 10 mg Wirkstoff mit 0,5 ml Dimethylsulfoxid. Durch Verdünnen mit citriertem Rinderblut erhält man die gewünschte Konzentration.
Ca. 20 nüchterne adulte Katzenflöhe (Ctenocephalides felis) werden in eine Kammer eingesetzt, die oben und unten mit Gaze verschlossen ist. Auf die Kammer wird ein Metallzylinder gestellt, dessen Unterseite mit Parafilm verschlossen ist. Der Zylinder enthält die Blut-Wirkstoffzubereitung, die von den Flöhen durch die Parafilmmembran aufgenommen werden kann.
Nach 2 Tagen wird die Abtötung in % bestimmt. Dabei bedeutet 100 %, dass alle Flöhe abgetötet wurden; 0 % bedeutet, dass keiner der Flöhe abgetötet wurde.

Meloidogyne incognita = Meloidogyne incognita test (gall formation on lettuce roots); assay type: in vivo; settings: 336 h, Aufwandmenge 20ppm, after 14 days, read-out: Wirkung (nematizide Wirkung anhand der Gallenbildung)
Description: Zur Herstellung einer zweckmäßigen Wirkstoffzubereitung vermischt man 1 Gewichtsteil Wirkstoff mit der angegebenen Menge Lösungsmittel und verdünnt das Konzentrat mit Wasser auf die gewünschte Konzentration.
Gefäße werden mit Sand, Wirkstofflösung, einer Ei-Larven-Suspension des südlichen Wurzelgallenälchens (Meloidogyne incognita) und Salatsamen gefüllt. Die Salatsamen keimen und die Pflänzchen entwickeln sich. An den Wurzeln entwickeln sich die Gallen.
Nach 14 Tagen wird die nematizide Wirkung anhand der Gallenbildung in % bestimmt. Dabei bedeutet 100 %, dass keine Gallen gefunden wurden; 0 % bedeutet, dass die Zahl der Gallen an den behandelten Pflanzen der unbehandelten Kontrolle entspricht.

Spodoptera frugiperda = Spodoptera frugiperda spray test (maize leaf discs, caterpillars); assay type: in vivo; settings: foliar, 168 h, Aufwandmenge 500g/ha, after 7 days, read-out: Wirkung
Description: (§1) Zur Herstellung einer zweckmäßigen Wirkstoffzubereitung löst man 1 Gewichtsteil Wirkstoff mit den angegebenen Gewichtsteilen Lösungsmittel und füllt mit Wasser, welches eine Emulgatorkonzentration von 1000 ppm enthält, bis zum Erreichen der gewünschten Konzentration auf. Zur Herstellung weiterer Testkonzentrationen wird mit emulgatorhaltigem Wasser verdünnt.
Maisblattscheiben (Zea mays) werden mit einer Wirkstoffzubereitung der gewünschten Konzentration gespritzt und nach dem Abtrocknen mit Raupen des Heerwurms (Spodoptera frugiperda) besetzt.
Nach 7 Tagen wird die Wirkung in % bestimmt. Dabei bedeutet 100 %, dass alle Raupen abgetötet wurden; 0 % bedeutet, dass keine Raupe abgetötet wurde.

Phaedon cochleariae = Phaedon cochleariae spray test (Chinese cabbage leaf discs, larvae); assay type: in vivo; settings: foliar, 168 h, read-out: Wirkung
Description: as §1
Chinakohlblattscheiben (Brassica pekinensis) werden mit einer Wirkstoffzubereitung der gewünschten Konzentration gespritzt und nach dem Abtrocknen mit Larven des Meerrettichblattkäfers (Phaedon cochleariae) besetzt.
Nach 7 Tagen wird die Wirkung in % bestimmt. Dabei bedeutet 100 %, dass alle Käferlarven abgetötet wurden; 0 % bedeutet, dass keine Käferlarven abgetötet wurden.

Lucilia cuprina = Lucilia cuprina test (L1 larvae on treated minced horse meat); assay type: in vivo; settings: 48 h, Aufwandmenge 100ppm, after 2 days, read-out: Wirkung (Abtötung)
Description: (§2) Zur Herstellung einer zweckmäßigen Wirkstoffzubereitung vermischt man 10 mg Wirkstoff mit 0,5 ml Dimethylsulfoxid und verdünnt das Konzentrat mit Wasser auf die gewünschte Konzentration.
Ca. 20 L1-Larven der Australischen Schafgoldfliege (Lucilia cuprina) werden in ein Testgefäß überführt, welches gehacktes Pferdefleisch und die Wirkstoffzubereitung der gewünschten Konzentration enthält.
Nach 2 Tagen wird die Abtötung in % bestimmt. Dabei bedeutet 100 %, dass alle Larven abgetötet wurden; 0 % bedeutet, dass keine Larven abgetötet wurden.

Musca domestica = Musca domestica test (adult flies, treated sugar sponge); assay type: in vivo; settings: 48 h, read-out: Wirkung (Abtötung)
Description: as §2
Gefäße, die einen Schwamm enthalten, der mit Zuckerlösung und der Wirkstoffzubereitung der gewünschten Konzentration behandelt wurde, werden mit 10 adulten Stubenfliegen (Musca domestica) besetzt.
Nach 2 Tagen wird die Abtötung in % bestimmt. Dabei bedeutet 100 %, dass alle Fliegen abgetötet wurden; 0 % bedeutet, dass keine der Fliegen abgetötet wurde.

Myzus persicae = Myzus persicae spray test (Chinese cabbage leaf discs); assay type: in vivo; settings: foliar, 144 h, Aufwandmenge 500g/ha, after 6 days, read-out: Wirkung
Description: as §1
Chinakohlblattscheiben (Brassica pekinensis), die von allen Stadien der Grünen Pfirsichblattlaus (Myzus persicae) befallen sind, werden mit einer Wirkstoffzubereitung der gewünschten Konzentration gespritzt.
Nach 6 Tagen wird die Wirkung in % bestimmt. Dabei bedeutet 100 %, dass alle Blattläuse abgetötet wurden; 0 % bedeutet, dass keine Blattläuse abgetötet wurden.

[2] = logP by reversed-phase HPLC (LC-MS), neutral range; assay type: physicochemical; settings: c18 hplc, ammonium bicarbonate/acetonitrile; pH 7.8, 0,001 molar aqueous Ammoniumhydrogencarbonat / Acetonitril, C 18, 55°C
Description: (§3) Die Messung der logP Werte erfolgt gemäß EEC Directive 79/831 Annex V.A8 durch HPLC (High Performance Liquid Chromatography) an einer Phasenumkehrsäule (C 18). Temperatur: 55°C. Die Bestimmung mit der LC-MS im sauren Bereich erfolgt bei pH 2,7 mit 0,1 % wässriger Ameisensäure und Acetonitril (enthält 0,1% Ameisensäure) als Eluenten; linearer Gradient von 10% Acetonitril bis 95% Acetonitril. In der Tabelle logP (HCOOH) genannt.
Die Bestimmung mit der LC-MS im neutralen Bereich erfolgt bei pH 7.8 mit 0,001 molarer wässriger Ammoniumhydrogencarbonat-Lösung und Acetonitril als Eluenten; linearer Gradient von 10 % Acetonitril bis 95 % Acetonitril. In der Tabelle logP (neutral) genannt.
(§4) Die Eichung erfolgt mit unverzweigten Alkan-2-onen (mit 3 bis 16 Kohlenstoffatomen), deren logP-Werte bekannt sind (Bestimmung der logP-Werte anhand der Retentionszeiten durch lineare Interpolation zwischen zwei aufeinander folgenden Alkanonen).

Tetranychus urticae = Tetranychus urticae spray test, OP-resistant (bean leaf discs); assay type: in vivo; settings: foliar, 144 h, read-out: Wirkung
Description: as §1
Bohnenblattscheiben (Phaseolus vulgaris), die von allen Stadien der Gemeinen Spinnmilbe (Tetranychus urticae) befallen sind, werden mit einer Wirkstoffzubereitung der gewünschten Konzentration gespritzt.
Nach 6 Tagen wird die Wirkung in % bestimmt. Dabei bedeutet 100 %, dass alle Spinnmilben abgetötet wurden; 0 % bedeutet, dass keine Spinnmilben abgetötet wurden.

Ctenocephalides felis [3] = assay: Ctenocephalides felis in-vitro contact test with adult cat fleas (coated glass tubes); assay type: in vivo; settings: 48 h, read-out: Wirkung
Description: Für die Beschichtung der Teströhrchen werden zunächst 9 mg Wirkstoff in 1 ml Aceton p.a. gelöst und anschließend mit Aceton p.a. auf die gewünschte Konzentration verdünnt. 250 µl der Lösung werden durch Drehen und Kippen auf einem Rotationsschüttler (2 h Schaukelrotation bei 30 rpm) homogen auf den Innenwänden und dem Boden eines 25ml Glasröhrchens verteilt. Bei 900 ppm Wirkstofflösung und 44,7 cm^2 Innenoberfläche wird bei homogener Verteilung eine Flächendosis von 5 µg/cm^2 erreicht.
Nach Abdampfen des Lösungsmittels werden die Gläschen mit 5-10 adulten Katzenflöhen (Ctenocephalides felis) besetzt, mit einem gelochten Kunststoffdeckel verschlossen und liegend bei Raumtemperatur und Umgebungsfeuchte inkubiert. Nach 48 h wird die Wirksamkeit bestimmt. Hierzu werden die Gläschen aufrecht gestellt und die Flöhe auf den Boden des Gläschens geklopft. Flöhe, die unbeweglich auf dem Boden verbleiben oder sich unkoordiniert bewegen, gelten als tot bzw. angeschlagen.
Eine Substanz zeigt gute Wirkung gegen Ctenocephalides felis, wenn in diesem Test bei einer Aufwandmenge von 5 µg/cm^2 mindestens 80% Wirkung erzielt wurde. Dabei bedeutet 100% Wirkung, dass alle Flöhe angeschlagen oder tot waren. 0% Wirkung bedeutet, dass keine Flöhe geschädigt wurden.

[4] = logP by reversed-phase HPLC (LC-MS), acidic range; assay type: physicochemical; settings: c18 hplc, formic acid/acetonitrile; pH 2,7, 0,1 % aqueous Ameisensäure / Acetonitril, C 18, 55°C; read-out: logP (HCOOH)
Description: as §3, §4

Compound | mortality at 100 µg/mL (Ctenocephalides felis [1]) | mortality at 500 g/ha (Spodoptera frugiperda) | mortality at 500 g/ha (Phaedon cochleariae) | chromatographic logP [2] | other results
O=C(Nc1cc(-c2ccc(OC(F)(F)F)cc2)cc(NC(=O)C2CC2)n1)C1CC1 [I-001, N,N'-{4-[4-(Trifluormethoxy)phenyl]pyridin-2,6-diyl}dicyclopropancarboxamid] | 100% | 100% | 100% |  | inhibition at 20 µg/mL (Meloidogyne incognita): 90%; mortality at 100 µg/mL (Lucilia cuprina): 95%
O=C(Nc1cc(-c2ccc(OC(F)(F)F)cc2)cc(NC(=O)C2(C(F)(F)F)CC2)n1)C1CC1 [I-006] | 100% | 100% | 83% |  | mortality at 100 µg/mL (Musca domestica): 90%
O=C(Nc1cc(-c2ccc(OC(F)(F)F)cc2)cc(NC(=O)C2(c3ccccc3)CC2)n1)C1CC1 [I-008] |  |  |  |  | mortality at 500 g/ha (Myzus persicae): 90%
O=C(Nc1cc(-c2ccc(OC(F)(F)F)cc2)cc(NC(=O)C2(F)CC2)n1)C1CC1 [I-012, N-{6-[(Cyclopropylcarbonyl)amino]-4-[4-(trifluormethoxy)phenyl]pyridin-2-yl}-1-fluorcyclopropancarboxamid] | 95% | 100% | 100% | 3.88 | 
O=C(Nc1cc(-c2ccc(OC(F)(F)F)cc2)cc(NC(=O)C2(C3CC3)CC2)n1)C1CC1 [I-014] | 100% | 100% | 100% |  | mortality at 100 µg/mL (Musca domestica): 80%; mortality at 100 µg/mL (Lucilia cuprina): 100%
CC(C)(F)C(=O)Nc1cc(-c2ccc(OC(F)(F)F)cc2)cc(NC(=O)C2CC2)n1 [I-015] | 100% | 100% | 100% |  | mortality at 500 g/ha (Tetranychus urticae): 90%
CC(C)(C)C(=O)Nc1cc(-c2ccc(OC(F)(F)F)cc2)cc(NC(=O)C2CC2)n1 [I-017] | 100% | 100% | 100% |  | mortality at 500 g/ha (Ctenocephalides felis [3]): 100%
FC(F)(F)Oc1ccc(-c2cc(NC(=S)C3CC3)nc(NC(=S)C3CC3)c2)cc1 [I-032, N,N'-{4-[4-(Trifluormethoxy)phenyl]pyridin-2,6-diyl}dicyclopropancarbothioamid] |  | 100% |  | 4.98 | 
O=C(Nc1cc(-c2ccc(OC(F)(F)F)cc2)cc(NC(=S)C2CC2)n1)C1CC1 [I-033, N-{6-[(Cyclopropylcarbonothioyl)amino]-4-[4-(trifluormethoxy)phenyl]pyridin-2-yl}cyclopropancarboxamid] |  | 100% |  | 4.44 | 
CC1=CC1C(=O)Nc1cc(-c2ccc(OC(F)(F)F)cc2)cc(NC(=O)C2CC2)n1 (stereo not drawn) [I-034] |  |  |  |  | mortality at 500 g/ha (Tetranychus urticae; Aufwandmenge 500g/ha, after 6 days, OP-resistent): 90%
O=C(Nc1cc(-c2ccc(C(F)(F)C(F)(F)F)c(F)c2)cc(NC(=O)C2CC2)n1)C1CC1 [I-035, N,N'-{4-[3-Fluor-4-(pentafluorethyl)phenyl]pyridin-2,6-diyl}dicyclopropancarboxamid] |  | 100% | 100% | 4.06 | 
O=C(Nc1cc(-c2ccc(C(F)(F)C(F)(F)F)cc2)cc(NC(=O)C2CC2)n1)C1CC1 [I-036] | 100% | 100% | 83% |  | mortality at 500 g/ha (Tetranychus urticae): 90%; mortality at 100 µg/mL (Lucilia cuprina): 95%
COC(=O)N(C(=O)C1CC1)c1cc(-c2ccc(OC(F)(F)F)cc2)cc(N(C(=O)OC)C(=O)C2CC2)n1 [I-037, Dimethyl-{4-[4-(trifluormethoxy)phenyl]pyridin-2,6-diyl}bis[(cyclopropylcarbonyl)carbamat]] |  |  |  | 3.73 | mortality at 500 g/ha (Phaedon cochleariae; Aufwandmenge 500g/ha, after 7 days): 100%
CC(C)C(=O)Nc1cc(NC(=O)C2CC2)cc(-c2ccc(C(F)(F)C(F)(F)F)c(F)c2)c1 [I-060, N-[3'-Fluor-5-(isobutyrylamino)-4'-(pentafluorethyl)biphenyl-3-yl]cyclopropancarboxamid] |  | 100% | 100% |  | chromatographic logP [4]: 3.7
Nc1cc(Br)cc(NC(=O)C2CC2)n1 [N-(6-Amino-4-brompyridin-2-yl)cyclopropancarboxamid] |  |  |  | 1.61 | 
CC(C)C(=O)Nc1cc(N)cc(-c2ccc(C(F)(F)C(F)(F)F)c(F)c2)c1 [N-[5-Amino-3'-fluor-4'-(pentafluorethyl)biphenyl-3-yl]-2-methylpropanamid] |  |  |  | 3.32 | 
Nc1cc(-c2ccc(OC(F)(F)F)cc2)cc(NC(=O)C2CC2)n1 [N-{6-Amino-4-[4-(trifluormethoxy)phenyl]pyridin-2-yl}cyclopropancarboxamid] |  |  |  | 2.79 | 
